Assay results taken from patent US11464854B2, “Methods and compositions relating to adjuvants” (Children's Medical Center Corporation, priority 2017, dated 2022).

Tests used:
human TLR7 = target: T1, human TLR7 (Homo sapiens, UniProt Q9NYK1); test: HEK293 NF-kB SEAP reporter assay, human TLR7; type: cell-based; conditions: among six IMQ and OA compounds, SEAP fold change
T1 construct: host or cells: HEK293 with NF-kB-responsive SEAP reporter
T1 sequence (Q9NYK1 27-1049): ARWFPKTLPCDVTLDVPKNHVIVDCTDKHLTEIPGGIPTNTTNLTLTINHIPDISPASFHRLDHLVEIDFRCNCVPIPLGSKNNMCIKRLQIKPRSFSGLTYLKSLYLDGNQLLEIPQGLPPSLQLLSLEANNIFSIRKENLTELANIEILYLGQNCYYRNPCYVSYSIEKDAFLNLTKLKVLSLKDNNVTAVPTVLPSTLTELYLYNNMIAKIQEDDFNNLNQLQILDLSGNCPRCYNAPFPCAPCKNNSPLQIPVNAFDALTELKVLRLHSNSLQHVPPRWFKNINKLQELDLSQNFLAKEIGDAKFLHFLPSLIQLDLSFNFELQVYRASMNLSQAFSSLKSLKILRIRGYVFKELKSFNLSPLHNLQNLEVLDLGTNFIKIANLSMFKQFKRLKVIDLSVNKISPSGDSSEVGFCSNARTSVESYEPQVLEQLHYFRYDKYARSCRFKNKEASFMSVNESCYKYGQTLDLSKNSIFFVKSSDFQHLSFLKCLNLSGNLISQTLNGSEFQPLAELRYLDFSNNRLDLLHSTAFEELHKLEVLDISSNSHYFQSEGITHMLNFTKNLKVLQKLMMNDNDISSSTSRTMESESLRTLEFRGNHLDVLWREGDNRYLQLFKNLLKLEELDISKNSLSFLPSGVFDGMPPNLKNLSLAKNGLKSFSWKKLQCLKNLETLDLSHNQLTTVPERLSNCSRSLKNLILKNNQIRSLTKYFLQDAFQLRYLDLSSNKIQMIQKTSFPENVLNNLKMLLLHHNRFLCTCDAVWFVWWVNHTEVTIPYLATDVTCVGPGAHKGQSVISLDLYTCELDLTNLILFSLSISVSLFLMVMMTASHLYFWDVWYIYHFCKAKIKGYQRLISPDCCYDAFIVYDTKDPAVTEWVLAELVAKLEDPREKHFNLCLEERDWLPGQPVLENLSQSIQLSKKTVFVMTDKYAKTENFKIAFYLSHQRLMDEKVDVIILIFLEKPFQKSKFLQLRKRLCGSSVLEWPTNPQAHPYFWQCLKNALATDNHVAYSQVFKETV
Method: Human embryonic kidney (HEK)293 cells expressing human TLR7 or TLR8 with an NF-κB-responsive secreted embryonic alkaline phosphatase (SEAP) reporter gene were obtained from Novus Biologicals (Littleton, Colo.) and Invivogen (San Diego, Calif.), respectively. Cells were maintained in DMEM with 10% HI-FBS and selection antibiotics per the manufacturer's instructions. Cells were plated at 5×10^5 cells/96-well and stimulated with indicated agonist(s) for 24 h. Supernatants were harvested and analyzed for NF-κB/SEAP activation using the QuantiBlue™ kit (Invivogen). Values are expressed as fold change in OD650 over vehicle-only treated samples.

[1] = tested on: newborn cord blood mononuclear cells (CBMCs); test: Human newborn Th1 polarization assay; type: cell-based; conditions: 10 μM, with αCD3, 96 hrs
Method: Newborn cord blood mononuclear cells (CBMCs), a mixed mononuclear cell culture which is a largely naïve newborn T cell population, were stimulated with the TLR7/8 agonists in the presence of the polyclonal T cell activator αCD3 for 96 hours. T cell polarization was evaluated by IFNγ levels measured in cell-free supernatants by ELISA.

[2] = tested on: FHA (B. pertussis filamentous hemagglutinin); test: Adult mouse immunization with Infanrix (DTaP), anti-FHA serum antibody titers; type: in vivo, Balb/c mice; conditions: 14 days post primary and secondary
Method: For immunization experiments, both neonate and adult mice were immunized intramuscularly (i.m.) in the posterior thigh with 50 μl of total vaccine dose. For adult mouse studies, Balb/c mice (6-8 weeks of age) were immunized with Infanrix (GSK, 1/100th of the human dose)±CRX649 or CRX-727 at 0.1 μg, 1 μg or 10 μg per mouse in different formulations (aqueous choline salt, liposome or alum pre-adsorbed). Serum was harvested 14 days following prime (14dp1) or boost (14dp2) and anti-FHA serum antibody IgG1 and IgG2a titers were measured by ELISA, as described below. For neonatal mouse studies, 7 day old Balb/c and C57BL/6 mice were immunized with a prime-boost schedule (two injections one week apart, for newborn mice at DOL 7 and 14). Serum was harvested 14 days following boost (14dp2) (day of life 28) and anti-FHA serum total IgG titers, IgG1 and IgG2a/IgG2c were measured by ELISA.
For anti-filamentous hemagglutinin (FHA) ELISAs, Nunc MaxiSorp™ flat bottom 96-well plates (ThermoFisher Scientific) were coated with 5 μg/ml FHA (B. pertussis Filamentous Hemagglutinin, Strain: NCTC 10739, The Native Antigen Company/Cedarlane, Burlington, N.C.) in carbonate buffer pH 9.6, incubated overnight at 4° C., washed 3× with wash buffer (KPL 10× Phosphate Buffered Saline with Tween 20 (Fisher Scientific)) and blocked with Superblock™ (ScyTek) for 1 h at room temperature (RT). […]

CCCCc1nc2c(N)nc3ccccc3c2n1CCO [CRX-649]
potency for hTLR7 (human TLR7): greatest potency
IFNγ production by newborn T cells [1]: significantly enhanced ability to induce IFNγ production
anti-FHA IgG1 or IgG2a antibody titers [2]: not able to enhance
